With `NCCc1cc(-c2ccccc2)n(-c2ccc(S(N)(=O)=O)cc2)n1`, the melting point (usually the temperature, or range, at which the solid turns liquid) was 189 to 192 °C. The value for `Oc1nc2cc(F)ccc2n2c(C(F)(F)F)nnc12` was 298 to 302 °C. To `COCC1(F)CCN(c2ccc(N3C[C@H](CNC(C)=O)OC3=O)cc2F)CC1` belongs 169 to 171 °C; to `CC1SCCCNc2ccccc21` (configuration not stated), 72 to 74 °C; to `Cc1cc(Cl)c(N2C(=O)Cc3cc(C)ccc32)c(Cl)c1`, 153 to 154 °C. As to `CN1Cc2c(C(=O)NN)ncn2-c2ccccc2C1=O`, the melting point was 312 to 313 °C.

In turn, `O=C(NCCN1CCC(Oc2ccc(Cl)c(Cl)c2)CC1)c1nnc(Nc2ccccc2Cl)o1` showed a melting point of 161 to 162 °C. The value for `Cc1cc(C)cc(C(=O)N2CCC(N3CCC(NC(=O)c4ccccc4N)CC3)CC2Cc2ccccc2)c1` (configuration not stated) was 121 °C; that for `CCCCCCCCCC(=O)Nc1cc(N)cc(NC(=O)CCCCCCCCC)c1` was 152 to 154 °C. Turning to `NCC(=O)N1CCN(C(=O)c2cc(C(F)(F)F)cc(C(F)(F)F)c2)[C@H](Cc2c[nH]c3ccccc23)C1`, the melting point is 110 to 120 °C. The value for `CC(O)Cc1cnn(-c2c(Cl)cc(C(F)(F)F)cc2Cl)n1` (configuration not stated) was 68 to 69 °C; that for `CC(C)(C)c1ccc(C2CCCN3CCS(=O)(=O)N=C23)cc1` (configuration not stated) was 232 to 236 °C. To `COC(=O)c1cc(N)cc(CNC(=O)OC(C)(C)C)c1` belongs 57 to 65 °C. To `O=[N+]([O-])c1ccc(C#CCCN2CCN(c3ccccn3)CC2)nc1` belongs 126 °C.

Compound `CCOC(=O)c1cn(C(C)CSc2ccccc2)c2nc(F)c(Cl)cc2c1=O` (configuration not stated) gave a melting point of 70 °C. The value for `O=C(O)c1cc([N+](=O)[O-])ccc1NCc1ccco1` was 190 to 192 °C. The value for `CNC(=S)N1CCc2cc(S(=O)(=O)N3CC(c4ccccc4)NC3=O)ccc21` (configuration not stated) was 217 to 219 °C; that for `CC(=O)c1c(O)ccc2[nH]ncc12` was 188 to 191 °C; that for `O=C(O)CN(C(=O)CCSC(=O)c1ccccc1)[C@H]1CC[C@H](c2ccccc2)CC1` was 125 to 128 °C.

In turn, `CNc1c(NCCCCc2ncc(Br)cc2C)c(=O)c1=O` gave a melting point of 190 to 191 °C.

As for `c1ccc(-n2c(-c3ccc(OCCN4CCCCC4)cc3)nc3ccccc32)cc1`, the melting point was found to be 107 °C. Regarding `CC(C)(C)OC(=O)Nc1ccc2ccc(S(=O)(=O)N(Cc3ccccc3)Cc3ccccc3)cc2c1`, the melting point is 139 to 140 °C. The value for `O=C(NCc1ccccc1)Nc1nnc(-c2ccc(CN3CCCCCC3)s2)o1` was 184 to 185 °C. The value for `CCCCCCCCCC(=O)SCC(C)(C(=O)Nc1cccc(C(=O)O)c1C)c1ccccc1` (configuration not stated) was 105 to 111 °C; that for `COC(=O)c1ncccc1NC(=O)C(C)CSC(C)=O` (configuration not stated) was 54 to 56 °C; that for `Cc1c(C(=O)O)ccc(S(C)(=O)=O)c1C1=NOCC1` was 182 to 184 °C. The value for `O=C(N1c2ccccc2C=Cc2ccccc21)C(F)(F)F` was 85 to 91 °C; that for `O=C1CC(c2cccc(-n3ccnc3)c2)=Nc2cc(N3C[C@@H](O)[C@@H](O)C3)c(-c3ccc(F)cc3)cc2N1` was 244 °C. In turn, `COc1ccc2ccccc2c1[N+](=O)[O-]` had a melting point of 129 to 130 °C. To `CCOC(=O)Cn1nc2ccc(OCCCN3CCC(OC(c4ccccc4)c4ccccc4)CC3)nn2c1=O` belongs 124 to 125 °C; to `CC(C)C(=O)Nc1cccn1C`, 122 to 124 °C.

For `CCOC(=O)C1=C(N)NC(N)=C(C(=O)OCC)C1c1ccccc1`, the melting point stood at 139 °C. To `Cc1nc(N2CCN(Cc3ccccc3)C2=N)sc1C(=O)NCc1ccc(F)cc1` belongs 142 to 144 °C; to `COC(=O)C=Cc1ccc(C)cc1`, 55 to 56 °C. To `COc1cc2c(cc1OC)CN(CCc1ccc(NC(=O)c3cccc4c(=O)c5cccc(F)c5[nH]c34)cc1)CC2` belongs 212 °C. The value for `CC(C)(CCC(=O)N[C@H](Cc1ccccc1)C(=O)NCCCCNC(=N)N)C(=O)O` was 169 °C; that for `CN1CCN(c2ncnc3nc(-c4ccncc4)[nH]c23)CC1` was 333 to 335 °C; that for `CC1Cc2cc3c(cc2C(c2ccc([N+](=O)[O-])cc2)=NN1c1ncccn1)OCO3` (configuration not stated) was 261 to 263 °C. As for `C[C@@H](Nc1ncnc2[nH]c(-c3ccc(C#N)cc3)cc12)c1ccccc1`, the melting point was in the range of 333 to 336 °C. The value for `Cc1nnc(-c2ccc3occ(-c4ccc(C(=O)O)cc4Cl)c3c2)o1` was 267 to 268 °C; that for `CCc1[nH]n(C2CCCC2)c2nc(-c3ccc(-n4ccnc4)cc3)nc(=O)c1-2` was > 300 °C.

`O=c1cc(OCc2ccccc2)c2ccc(OCCc3ccc(F)cc3)cc2o1` gave a melting point of 120 °C. To `Brc1cccc(-c2csc(Br)n2)c1` belongs 88 to 90 °C; to `CSC(NCc1ccc(N)cc1)=C(C#N)C#N`, 100 to 102 °C; to `C=CC(=O)OCCCCCCCCOc1ccc(-c2ccc(OCCCCCCCCOC(=O)C=C)c(F)c2)cc1F`, 56.1 to 57.9 °C. To `COCC1COc2cc3ncnc(Nc4cc(C)cc(C)c4)c3cc2O1` (configuration not stated) belongs 268 to 270 °C; to `CC(O)(CF)C(=O)Nc1ccc(C(=O)c2ccccc2)cc1` (configuration not stated), 146 to 148 °C.

Compound `CC(C)(C)[Si](OCCOc1ccc([N+](=O)[O-])cn1)(c1ccccc1)c1ccccc1` came in with a melting point of 63 to 64 °C. To `CC(C)(C)OC(=O)NC1CCCOCC=CC2CC2(C(=O)NS(=O)(=O)C2CC2)NC(=O)C2CC(OCc3ccccc3)CN2C1=O` (configuration not stated) belongs 147 to 149 °C; to `COc1c(Oc2ccc3ncc([N+](=O)[O-])n3n2)cnc(CNc2nc(C)nc(C)c2Cl)c1C`, 230 to 232 °C; to `CC(C)c1c(/C=C/I)c(-c2ccc(F)cc2)nc2ccccc12`, 145 to 147 °C. To `CC1CCN(Cc2ccccc2)C1=Nc1ccccc1N1CCOCC1` (configuration not stated) belongs 96 to 97 °C.

In turn, `CCCn1c(-n2nc(-c3c(-c4ccccc4)nn4ccccc34)ccc2=O)cc(=O)n(CC(=O)OC)c1=O` registered a melting point of 191 to 195 °C.

Compound `CCOC(=O)C=Cc1ccc2c(c1)c(-c1cc3cccnc3n1S(=O)(=O)c1ccc(C)cc1)cn2C` returned a melting point of 159 to 162 °C. To `CCOC(=O)c1csc(/C=C/c2cn(-c3ccccc3)nc2OCc2ccc(OCc3nc(-c4ccco4)oc3C)c(OC)c2)n1` belongs 156 to 157 °C. In turn, `ClCc1ccc(-c2ccccc2)nc1` yielded a melting point of 95 to 96 °C. The value for `CS(=O)c1ccc(-c2nc3ncccc3[nH]2)cc1` (configuration not stated) was 240 to 242 °C; that for `CCCCC1OC(=O)c2cc(N)ccc21` (configuration not stated) was 129 to 131 °C.

As to `CCOC(=O)COC1CC(C)(C)N(O)C(C)(C)C1`, the melting point was 41 to 43 °C.

Turning to `CC(=O)OCCc1c(N)cc(OCc2ccccc2)c2ccccc12`, the melting point was in the range of 76 to 82 °C. To `O=C(O)COc1ccc2cc(-c3ccc(-c4ccccc4)n3Cc3ccccc3)ccc2c1` belongs 171 to 172 °C. To `S=c1[nH]c2cccc(OCCNCc3cccc4ccccc34)c2[nH]1` belongs 191 to 193 °C.

These data come from a melting point compilation (Tetko et al.; mined from patent text by program, amines drawn as free bases though some values may be those of a salt).
